{"source": "patent US7981863B2", "about": "“Treatment of Parkinson's disease with PDGF” (Neuronova AB, priority 2001, dated 2011)", "key": {"Mouse Neural Stem Cells": {"tested_on": "Mouse Neural Stem Cells", "assay": "Neuronal differentiation (β-III Tubulin) of adult mouse neural stem cells", "format": "cell-based", "details": "1 nM, 7 days", "procedure": "Adult mouse neurosperes were dissociated with trypsin (Gibco) into single cells and transferred to poly-D-Lysine plates (BD) in the above culture medium, without growth factors, supplemented with 1% Fetal Calf Serum (Gibco). The cells were incubated over night to adhere to the plate. The medium was changed to culture medium, without growth factors, supplemented with 1 nM PDGF-AA or PDFG-BB (both from R&D Systems). The medium with new substance added every second day. The cells were incubated for a total of 7 days.\nThe cells were washed two times with PBS (Gibco) and fixed for 15 min RT with 4% Formaldehyde (Sigma) and permeabilized 20 min RT in 0.1% Triton X-100 (Sigma) in PBS. After fixation and permeabilization the cells were labelled with mouse monoclonal anti-β-III Tubulin (1:500 Promega). Primary antibody was visualized with anti mouse Texas-Red (1:100 Vector Laboratories). All antibodies were diluted in PBS with 0.1% Triton X-100.\nThe cells were washed twice with PBS (Gibco) and lysed with 200 ul lysis buffer/well. The lysis buffer contained PBS, 0.1% Triton X-100, 1 mM EDTA and 1 tab1. Protease inhibitor cocktail (Roche). The samples were run on a 4-12% Bis-Tris gel (Novex) under reduced conditions with MOPS buffer (Novex) and blotted onto a Hybond ECL nitrocellulose membrane (Amersham Biotech). Blocked in 5% ECL-Block (Amersham Biotech) in PBS+0.1% Tween 20 (Sigma). The membranes were labelled with mouse monoclonal anti-β-III Tubulin (1:5000 Promega). The primary antibody was detected using a secondary antibody anti-mouse-HRP (1:10000 Amersham Biotech) and ECL Plus+ Western Blot Detection Kit (Amersham Biotech). All antibodies were diluted in PBS with 0.1% Triton X-100, 1% ECL Block. The signal were then captured on ECL Hyper Film (Amersham Biotech)"}, "[1]": {"tested_on": "cultured, non-adherent mouse neurospheres", "assay": "Intracellular ATP assay, proliferation of cultured mouse neurospheres", "format": "cell-based", "details": "FIG. 1", "procedure": "The anterior lateral wall of the lateral ventricle of 5-6 week old mice was enzymatically dissociated in 0.8 mg/ml hyaluronidase and 0.5 mg/ml trypsin in DMEM containing 4.5 mg/ml glucose and 80 units/ml DNase at 37° C. for 20 min. The cells were gently triturated and mixed with three volumes of Neurosphere medium (DMEM/F12, B27 supplement, 125 mM HEPES pH 7.4) containing 20 ng/ml EGF (unless otherwise stated), 100 units/ml penicillin and 100 μg/ml streptomycin. After passing through a 70 μm strainer, the cells were pelleted at 160×g for 5 min. The supernatant was subsequently removed and the cells resuspended in Neurosphere medium supplemented as above, plated out in culture dishes and incubated at 37° C. Neurospheres were ready to be split approximately 7 days after plating.\nTo split the neurospheres, cells were collected by centrifugation at 160×g for 5 min. The conditioned supernatant (conditioned medium) was removed and saved. The neurospheres were resuspended in 0.5 ml Trypsin/EDTA in HBSS (1×), incubated at 37° C. for 2 min and triturated gently to aid dissociation. Following a further 3 min incubation at 37° C. and trituration, 3 volumes of ice cold Neurosphere medium medium w/o EGF were added to stop further trypsin activity. […]\nAfter 3 days of treatment, intracelluar ATP was measured using the ATP SL kit (Biothema) according to the manufacturer's instructions."}, "[2]": {"tested_on": "Mouse Cultured Neural Stemcells/Progenitors", "assay": "GFAP and β-III Tubulin in adherent mouse neural stem cells (Western blot, immunocytochemistry)", "format": "cell-based", "procedure": "NSCs, cultured as described above, were seeded from passage 2 into DMEM/F12 supplemented with B27 into a 24-well plate (poly-D-lysine-coated) as single cells (70.000 cells/well), to which PDGF-AA was added at the concentration of 1 nM. The cells were then differentiated for 5 days changing medium plus/minus PDGF-AA every 48 hours. At day 6 the cells were harvested and Western blots were performed as described elsewhere (Patrone C et al (1999) Proc Natl Acad Sci USA. 96(19):10905-10). A neuronal marker antibody against β-III Tubulin, 1:5000 (BioSite), or a glial marker antibody against glial fibrillary acidic protein (GFAP) 1:5000, (DAKO) was used to measure phenotypic fates.\nIn another set of experiments the effects of PDGF-AA were studied with immunocytochemical methods in fixed adherently cultured neural stem cells. […] In other experiments with PDGF-AA, analyzed by immunocytochemistry, it was shown that the factor caused a general shift from a stem cell phenotype to a progenitor phenotype in that cultures contained both of the markers, GFAP and β-III Tubulin. […] In concurrent experiments the effect of PDGF-BB was also studied."}, "[3]": {"tested_on": "rat neural stem cells from the adult lateral ventricle wall", "assay": "Expansion of rat neural stem cell cultures, total cell counts at 7 days", "format": "cell-based", "details": "for block of the VEGF response / growth of neural stem cell cultures: total cell counts at 7 days; for growth of neural stem cell cultures: growth conditions (EGF and FGF-2), no recombinant VEGF, FIG. 30", "procedure": "Neural stem cells were prepared according to the attached protocol. Cells were grown in serum-free medium, subcloned and used between passage 6 and 10. If not otherwise mentioned the experiments consisted of triplets for analysis and were independently repeated at least 3 times.\nBasal Medium: Neurobasal medium (NB, Gibco BRL) & B27 supplement (Gibco BRL).\nGrowth Medium: NB, B27 supplement+20 ng/ml of FGF-2 (R&D Systems)+20 ng/ml EGF (R&D Systems)+2 μg/ml heparin (Sigma, Germany).\nCells were plated in Growth medium at 10.000 cells/ml and after 2 days switched to the experimental condition. Cells were kept under the experimental condition for 7 days.\nAdult female Fischer-344 rats (3-4 months; Charles River, Germany) were killed via cervical dislocation, the brains of each rat were removed and stored at 4° C. in DPBS (PAN, Germany) with 4.5 g/L glucose (Merck, Germany) (DPBS/glu). Overlying meninges and blood vessels were removed. Ependymal zone including subependymal/subventricular zone form the lateral wall of the lateral ventricle were aseptically removed. The dissected tissue was transferred to fresh DPBS/glu, washed once, transferred to petri-dishes and dissociated mechanically into a single cell suspension. The cell suspension was washed in DPBS/glu in order to rinse off excess blood and resuspended in PPD-solution containing 0.01% Papain (Worthington Biochemicals, England), 0.1% dispase II (Boehringer, Germany), 0.01% DNase I (Worthington Biochemicals, England) and 12.4 mM MgSO4 in HBSS (PAN, Germany) without Mg^++/Ca^++ (PAA, Germany) and digested for 30 to 40 min at room temperature. The cell solution was triturated every 10 min. Dissociated cells were collected and resuspended in serum-free DMEM/F12 medium containing 2 mM L-glutamine and 0.1 g/L penicillin/streptomycin and washed three times with accurate trituration with a blue tip. Finally the single cell suspension was resuspended in Neurobasal medium (Gibco BRL, Germany) supplemented with B27 (Gibco BRL, Germany) (NB/B27), 2 mM L-glutamine (PAN, Germany), 0.1 g/L penicillin/streptomycin (PAN, Germany), 2 μg/ml heparin (Sigma, Germany), 20 ng/ml bFGF-2 (R&D Systems, Germany) and 20 ng/ml EGF (R&D Systems, Germany). Live cells were counted by trypan blue exclusion assay in a hemocytometer. Cells were seeded in T-25 culture flasks and cultures were maintained at 37° C. in an incubator with 95% air, 5% CO2. Single cells began to form spheres within 5 to 7 days of suspension culture and continued to grow in mass and number over the next weeks. Media were changed every 7 days.\nThe culture medium containing floating neurospheres was collected in a 15 ml centrifuge tube and centrifuged at 800 rpm. The pellet was resuspended in 200 μl of Accutase (Innovative Cell Technologies Inc., USA, distributed by PAA, Germany) and triturated about 10 times using a pipette. Then, the cell suspension was incubated at 37° C. for 10 min. Dissociated spheres were again triturated and resuspended in 800 μl of NB/B27 medium. An aliquot was counted by trypan blue exclusion assay in a hemocytometer to determine the amount of live and dead cells. 1×10^5 cells were plated in T75 culture flasks for long term passaging (10 ml of culture medium per flask) in NB/B27 medium. The cells obtained after Accutase-treatment of primary neurospheres proliferated and yielded secondary neurospheres. Secondary neurospheres were passaged 7 to 9 days after plating primary neurosphere cells. Similar to primary cultures and primary neurospheres, single cells obtained after dissociation of secondary neurospheres proliferated and yielded tertiary neurospheres. […]"}, "Flk-1": {"tested_on": "Flk-1", "details": "Calbiochem product data; cited from earlier work"}, "[4]": {"tested_on": "Neural stem cell cultures", "details": "50 ng/ml VEGF, 100 nM PADQ or 700 nM SU1498 for 7 days", "procedure": "BrdU (10 μM) was added to the culture medium 24 hrs before cells were harvested and lysed. DNA was extracted and BrdU content was determined using an anti-BrdU-ELISA. The data are presented as percent changes in optical density compared to control (Growth medium)."}, "[5]": {"tested_on": "cells from the lateral ventricle wall", "details": "after intraventricular infusion, compared to aCSF controls; FIG. 33"}, "adult rats": {"tested_on": "adult rats", "details": "four weeks after 7 days of continuous VEGF infusion into the lateral ventricle"}, "[6]": {"details": "1 nM, 6 days, adherent culture, compared to treatment with EGF"}, "[7]": {"details": "fixed adherently cultured neural stem cells"}, "[8]": {"details": "basal medium, VEGF 50 ng/ml, PADQ 100 nM, SU1498 700 nM"}, "[9]": {"details": "growth conditions (including EGF and FGF-2)"}}}
{"compound": "PDGF-AA: human recombinant PDGF-AA, platelet derived growth factor A-chain homodimer", "values": [{"measurement": "number of β-III Tubulin positive cells in culture", "setting": "Mouse Neural Stem Cells; compared to the control, FIG. 5", "result": "significantly increase the number of β-III Tubulin positive cells"}, {"measurement": "levels of β-III Tubulin protein (Western blot)", "setting": "Mouse Neural Stem Cells; compared with the control, FIG. 6", "result": "significantly increased levels of β-III Tubulin protein"}, {"measurement": "neuronal differentiation of cultured mouse neural stem cells/progenitors", "setting": "Mouse Neural Stem Cells; FIG. 5 and FIG. 6", "result": "trigger neuronal differentiation"}, {"measurement": "effect on the proliferative effect of PDGF-BB when added together", "setting": "[1]; PDGF-AA added together with PDGF-BB, B27 medium", "result": "did not alter the proliferative effect of PDGF-BB"}, {"measurement": "proliferative effect (intracellular ATP)", "setting": "[1]; growth media supplemented with B27, 1 nM-0.0005 nM, 3 days of treatment", "result": "weaker compared to BB"}, {"measurement": "GFAP (Western blot)", "setting": "[2]; [6]", "result": "downregulation of GFAP"}, {"measurement": "β-III Tubulin neuronal marker (Western blot)", "setting": "[2]; [6]", "result": "significant increase"}, {"measurement": "GFAP (immunocytochemistry)", "setting": "[2]; [7]", "result": "down regulation of GFAP"}, {"measurement": "β-III Tubulin (immunocytochemistry)", "setting": "[2]; [7]", "result": "upregulation of β-III Tubulin"}]}
{"compound": "CC(C)c1cc(/C=C(\\C#N)C(=O)NCCCc2ccccc2)cc(C(C)C)c1O", "note": "[SU1498, (E)-3-(3,5-Diisopropyl-4-hydroxyphenyl)-2-[(3-phenyl-n-propyl)amino-carbonyl]acrylonitrile]", "values": [{"measurement": "block of the VEGF response", "setting": "[3]; [8]", "result": "able to block the VEGF response"}, {"measurement": "growth of neural stem cell cultures", "setting": "[3]", "result": "significantly reduce the growth"}, {"measurement": "block of the VEGF response", "setting": "[3]; [9]", "result": "able to block the VEGF response"}, {"measurement": "IC50", "setting": "Flk-1", "result": 700, "unit": "nM"}]}
{"compound": "VEGF", "values": [{"measurement": "stimulation of proliferation of neural stem cell cultures", "setting": "[3]; different concentrations, 7 days, FIG. 24, FIG. 25", "result": "dose-dependent stimulatory effect"}, {"measurement": "ED50 (expansion of neural stem cell cultures)", "setting": "[3]; growth medium, 7 days, FIG. 27", "result": "~10", "unit": "ng/mL"}, {"measurement": "concentration of maximal stimulation", "setting": "[3]; growth medium, 7 days, FIG. 27", "result": 50, "unit": "ng/mL"}, {"measurement": "BrdU incorporation (proliferation ELISA)", "setting": "[4]", "result": "more BrdU"}, {"measurement": "DNA strand breaks (apoptosis ELISA)", "setting": "[4]", "result": "reduced the amount of DNA strand breaks"}, {"measurement": "number of spheres formed in culture from lateral ventricle wall cells", "setting": "[5]", "result": "significantly increased"}, {"measurement": "BrdU labeled cells in the dentate gyrus", "setting": "adult rats", "result": "marked increase"}]}
{"compound": "COc1cc2ncnc(Nc3ccc(Cl)cc3F)c2cc1OC", "note": "[PADQ]", "values": [{"measurement": "block of the VEGF response", "setting": "[3]; [8]", "result": "able to block the VEGF response"}, {"measurement": "growth of neural stem cell cultures", "setting": "[3]", "result": "significantly reduce the growth"}, {"measurement": "block of the VEGF response", "setting": "[3]; [9]", "result": "able to block the VEGF response"}, {"measurement": "IC50", "setting": "Flk-1", "result": 100, "unit": "nM"}]}
